Test results reported in paper PMC7567103 (Nature Communications, 2020).

Legend:
Type in all cases: cell-based
[1] = target: T1, GHRHR wild-type (HA-Flag-GHRHR) (Homo sapiens, UniProt Q02643); experiment: GHRH-stimulated cAMP accumulation (LANCE), HEK 293T; conditions: LANCE Ultra cAMP TR-FRET, 30 min RT, mean ± SEM, n ≥ 3
T1 construct: GHRHR(23-423) (WT); HA signal peptide (replaces native signal M1-G22) (N); expressed in transfected cells; host or cells: HEK 293T, pcDNA3.1, transient
Excerpt: (§1) Fig. 2 Molecular recognition of GHRH by GHRHR and comparison of that with LA-PTH–PTH1R and GLP-1–GLP-1R. a Detailed interaction between GHRH and the TMD pocket of GHRHR with hydrogen bonds shown as dotted lines. b, c Pairwise comparison of GHRH bound to GHRHR with GLP-1 and LA-PTH in complex with their corresponding receptors, showing the relative positions of peptide ligands. Lime green, GHRHR; blue, GHRH; red, PTH1R and LA-PTH; purple, GLP-1R and GLP-1. d–f The effects of mutation in the ligand-binding pocket on cAMP accumulation. cAMP levels were measured in wild-type (WT) receptor and alanine mutants in ECL1, 2, and 3 (d), TM1, 2, and 3 (e), and TM5, 6, and 7 (f). cAMP signals were normalized to the maximum response of WT and concentration–response curves were analyzed using a three-parameter logistic equation. Data shown are means ± S.E.M. of at least three independent experiments (n = 3–5), conducted in triplicate. Source data are provided as a Source data file.
GHRH-stimulated cAMP accumulation was measured by a LANCE Ultra cAMP kit (PerkinElmer). […] After 1 h RT incubation, TR-FRET signals (excitation: 320 nm, emission: 615 and 665 nm) were measured by an EnVision (PerkinElmer). […]
245 to determine pEC50 and Emax values. Emax values for mutants are expressed as a
246 percentage of the wild-type (WT). Cell surface expression was assessed by FACS to […]

[2] = target: T2, GHRHR V179A (Homo sapiens, UniProt Q02643, V179A); experiment: cAMP accumulation, V179A; conditions: mean ± SEM, n ≥ 3
T2 construct: GHRHR(23-423)-; HA signal peptide (replaces native signal M1-G22) (N); expressed in transfected cells; host or cells: HEK 293T, pcDNA3.1, transient
Excerpt: as §1
(§2) GHRH-stimulated cAMP accumulation was measured by a LANCE Ultra cAMP kit (PerkinElmer). […] After 1 h RT incubation, TR-FRET signals (excitation: 320 nm, emission: 615 and 665 nm) were measured by an EnVision (PerkinElmer).

[3] = target: T3, GHRHR K182A (Homo sapiens, UniProt Q02643, K182A); experiment: cAMP accumulation, K182A; conditions: mean ± SEM, n ≥ 3
T3 construct: GHRHR(23-423)-; HA signal peptide (replaces native signal M1-G22) (N); expressed in transfected cells; host or cells: HEK 293T, pcDNA3.1, transient
Excerpt: as §1, §2

[4] = target: T4, GHRHR C195A (Homo sapiens, UniProt Q02643, C195A); experiment: cAMP accumulation, C195A; conditions: mean ± SEM, n ≥ 3
T4 construct: GHRHR(23-423)-; HA signal peptide (replaces native signal M1-G22) (N); expressed in transfected cells; host or cells: HEK 293T, pcDNA3.1, transient
Excerpt: as §1, §2

[5] = target: T5, GHRHR S209A (Homo sapiens, UniProt Q02643, S209A); experiment: cAMP accumulation, S209A; conditions: mean ± SEM, n ≥ 3
T5 construct: GHRHR(23-423)-; HA signal peptide (replaces native signal M1-G22) (N); expressed in transfected cells; host or cells: HEK 293T, pcDNA3.1, transient
Excerpt: as §1, §2

[6] = target: T6, GHRHR T213A (Homo sapiens, UniProt Q02643, T213A); experiment: cAMP accumulation, T213A; conditions: mean ± SEM, n ≥ 3
T6 construct: GHRHR(23-423)-; HA signal peptide (replaces native signal M1-G22) (N); expressed in transfected cells; host or cells: HEK 293T, pcDNA3.1, transient
Excerpt: as §1, §2

[7] = target: T7, GHRHR N346A (Homo sapiens, UniProt Q02643, N346A); experiment: cAMP accumulation, N346A; conditions: mean ± SEM, n ≥ 3
T7 construct: GHRHR(23-423)-; HA signal peptide (replaces native signal M1-G22) (N); expressed in transfected cells; host or cells: HEK 293T, pcDNA3.1, transient
Excerpt: as §1, §2

[8] = target: T8, GHRHR L354A (Homo sapiens, UniProt Q02643, L354A); experiment: cAMP accumulation, L354A; conditions: mean ± SEM, n ≥ 3
T8 construct: GHRHR(23-423)-; HA signal peptide (replaces native signal M1-G22) (N); expressed in transfected cells; host or cells: HEK 293 T
Excerpt: as §1, §2

[9] = target: T9, GHRHR R357A (Homo sapiens, UniProt Q02643, R357A); experiment: cAMP accumulation, R357A; conditions: mean ± SEM, n ≥ 3
T9 construct: GHRHR(23-423)-; HA signal peptide (replaces native signal M1-G22) (N); expressed in transfected cells; host or cells: HEK 293 T
Excerpt: as §1, §2

T4 sequence (Q02643 23-423 C195A): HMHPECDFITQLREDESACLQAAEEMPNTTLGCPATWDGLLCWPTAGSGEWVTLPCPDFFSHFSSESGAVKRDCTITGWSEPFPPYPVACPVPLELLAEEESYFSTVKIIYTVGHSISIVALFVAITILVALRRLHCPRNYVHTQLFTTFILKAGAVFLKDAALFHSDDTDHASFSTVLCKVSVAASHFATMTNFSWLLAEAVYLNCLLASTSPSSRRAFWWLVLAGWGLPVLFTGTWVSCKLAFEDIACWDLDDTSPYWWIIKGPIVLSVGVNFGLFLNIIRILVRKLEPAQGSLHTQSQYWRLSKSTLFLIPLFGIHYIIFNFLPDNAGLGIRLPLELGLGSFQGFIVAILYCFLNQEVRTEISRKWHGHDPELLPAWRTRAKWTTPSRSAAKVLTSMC
T1 sequence (Q02643 23-423): as the sequence (Q02643 23-423 C195A) above, with A173C counted along it
T6 sequence (Q02643 23-423 T213A): as the sequence (Q02643 23-423 C195A) above, with A173C, T191A counted along it
T8 sequence (Q02643 23-423 L354A): as the sequence (Q02643 23-423 C195A) above, with A173C, L332A counted along it
T3 sequence (Q02643 23-423 K182A): as the sequence (Q02643 23-423 C195A) above, with K160A, A173C counted along it
T9 sequence (Q02643 23-423 R357A): as the sequence (Q02643 23-423 C195A) above, with A173C, R335A counted along it
T2 sequence (Q02643 23-423 V179A): as the sequence (Q02643 23-423 C195A) above, with V157A, A173C counted along it
T5 sequence (Q02643 23-423 S209A): as the sequence (Q02643 23-423 C195A) above, with A173C, S187A counted along it
T7 sequence (Q02643 23-423 N346A): as the sequence (Q02643 23-423 C195A) above, with A173C, N324A counted along it

CC[C@H](C)[C@H](NC(=O)[C@H](C)NC(=O)[C@H](CC(=O)O)NC(=O)[C@H](C)NC(=O)[C@@H](N)Cc1ccc(O)cc1)C(=O)N[C@@H](Cc1ccccc1)C(=O)N[C@H](C(=O)N[C@@H](CC(N)=O)C(=O)N[C@@H](CO)C(=O)N[C@@H](Cc1ccc(O)cc1)C(=O)N[C@@H](CCCNC(=N)N)C(=O)N[C@@H](CCCCN)C(=O)N[C@H](C(=O)N[C@@H](CC(C)C)C(=O)NCC(=O)N[C@@H](CCC(N)=O)C(=O)N[C@@H](CC(C)C)C(=O)N[C@@H](CO)C(=O)N[C@@H](C)C(=O)N[C@@H](CCCNC(=N)N)C(=O)N[C@@H](CCCCN)C(=O)N[C@@H](CC(C)C)C(=O)N[C@@H](CC(C)C)C(=O)N[C@@H](CCC(N)=O)C(=O)N[C@@H](CC(=O)O)C(=O)N[C@H](C(=O)N[C@@H](CCSC)C(=O)N[C@@H](CO)C(=O)N[C@@H](CCCNC(=N)N)C(=O)N[C@@H](CCC(N)=O)C(=O)N[C@@H](CCC(N)=O)C(=O)NCC(=O)N[C@@H](CCC(=O)O)C(=O)N[C@@H](CO)C(=O)N[C@@H](CC(N)=O)C(=O)N[C@@H](CCC(N)=O)C(=O)N[C@@H](CCC(=O)O)C(=O)N[C@@H](CCCNC(=N)N)C(=O)NCC(=O)N[C@@H](C)C(=O)N[C@@H](CCCNC(=N)N)C(=O)N[C@@H](C)C(=O)N[C@@H](CCCNC(=N)N)C(=O)N[C@@H](CC(C)C)C(N)=O)[C@@H](C)CC)C(C)C)[C@@H](C)O [GHRH, Growth hormone-releasing hormone]
EC50 ([1]; 0.5 mM IBMX): 0.182 nM | Emax [1]: 100 % WT | EC50 [2]: 0.288 nM | Emax [2]: 101.24±3.06 % WT | EC50 [3]: 39.8 nM | Emax [3]: 100.02±1.40 % WT | EC50 [4]: 21.4 nM | Emax [4]: 95.22±1.05 % WT | EC50 [5]: 0.11 nM | Emax [5]: 100.52±0.43 % WT | EC50 [6]: 0.447 nM | Emax [6]: 91.48±4.55 % WT | EC50 [7]: 1.41 nM | Emax [7]: 101.21±3.69 % WT | EC50 [8]: 0.182 nM | Emax [8]: 98.79±1.84 % WT | EC50 [9]: 135 nM | Emax [9]: 60.05±5.19 % WT
